The target of assay [1] is T1, E6 WT/E6AP (Human papillomavirus type 16, UniProt P03126). Nature of the assay: biochemical. Conditions: WT 16E6; for inhibition at 10 µM: 10 μM compound; for inhibition at 100 µM: 100 μM compound. In kind it is binding.
The next assay deals with E6C51S/E6AP (Human papillomavirus type 16, UniProt P03126, C58S). As to the kind of experiment: E6/E6AP binding assay (amylose-bound MBP-16E6, E6AP-BAP activity), C51S 16E6. More on the design: species or system HPV-16. Conditions: for % Inhibition @ 10 μM E6C51S/E6AP: 10 μM compound; for % Inhibition @ 100 μM E6C51S/E6AP: 100 μM compound.
E6C51S/E6AP, sequence (P03126 whole entry C58S, looked up): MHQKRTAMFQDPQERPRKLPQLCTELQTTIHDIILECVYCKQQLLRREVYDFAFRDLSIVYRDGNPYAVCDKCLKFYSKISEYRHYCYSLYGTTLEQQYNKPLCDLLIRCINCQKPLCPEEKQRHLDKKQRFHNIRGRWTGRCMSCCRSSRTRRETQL
Assay [2] has as its target T1, E6 WT/E6AP. As to the kind of experiment: biochemical. In kind it is binding. Conditions: for Emax: 24 h, read-out: FP maximal inhibition (max %) E6 WT/E6AP; for IC50: FP IC50 at 24 h (μM) E6 WT/E6AP.

Here are results for 26 molecules from patent publication US12533339B2, “Small molecule antiviral drug treatment for human papillomavirus infections” (THE TRUSTEES OF INDIANA UNIVERSITY, priority 2020, dated 2026).

T1 sequence (P03126 8-158): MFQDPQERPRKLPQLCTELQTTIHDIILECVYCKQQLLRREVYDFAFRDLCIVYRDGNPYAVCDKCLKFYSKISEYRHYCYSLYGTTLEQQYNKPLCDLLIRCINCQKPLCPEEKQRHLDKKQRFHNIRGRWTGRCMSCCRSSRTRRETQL

In the case of `Cc1ccccc1C1c2ccsc2CCN1C(C)C(=O)N1CCCN(C(=O)CCl)CC1` (centres unmarked) [EIN-117, 1-(4-(2-chloroacetyl)-1,4-diazepan-1-yl)-2-(4-(o-tolyl)-6,7-dihydrothieno[3,2-c]pyridin-5(4H)-yl)propan-1-one], at E6 WT/E6AP [1], the inhibition (usually the relative decrease from the control value, in per cent) at 10 µM was found to be 17 ± 1% and the inhibition at 100 µM was determined as 33 ± 7%.

Take `Cc1ccccc1C1c2ccsc2CCN1CC(=O)N1CCN(C(=O)CCl)C(C)C1` (centres unmarked) [EIN-118, 2-chloro-1-(2-methyl-4-(2-(4-(o-tolyl)-6,7-dihydrothieno[3,2-c]pyridin-5(4H)-yl)acetyl)piperazin-1-yl)ethan-1-one]: at E6 WT/E6AP [1], the inhibition at 10 µM came to 49 ± 5% and the inhibition at 100 µM stood at 98 ± 2%. At E6C51S/E6AP, the “% Inhibition @ 10 μM E6C51S/E6AP” value was determined as 12 ± 11% and the “% Inhibition @ 100 μM E6C51S/E6AP” value is recorded as 79 ± 5%.

As for `O=C(CCl)N1CCCN(C(=O)CN2CCc3sccc3C2c2cccc(F)c2)CC1` (centres unmarked) [EIN-119, 2-chloro-1-(4-(2-(4-(3-fluorophenyl)-6,7-dihydrothieno[3,2-c]pyridin-5(4H)-yl)acetyl)-1,4-diazepan-1-yl)ethan-1-one], on E6 WT/E6AP [1], the inhibition at 10 µM stood at 33 ± 6% and the inhibition at 100 µM turned out to be 61 ± 1%. Further, on E6C51S/E6AP, the “% Inhibition @ 10 μM E6C51S/E6AP” value was 9 ± 7% and the “% Inhibition @ 100 μM E6C51S/E6AP” value amounted to 34 ± 7%.

With `CC1CN(C(=O)CN2CCc3sccc3C2c2cccc(F)c2)CCN1C(=O)CCl` (centres unmarked) [EIN-120, 2-chloro-1-(4-(2-(4-(3-fluorophenyl)-6,7-dihydrothieno[3,2-c]pyridin-5(4H)-yl)acetyl)-2-methylpiperazin-1-yl)ethan-1-one], at E6 WT/E6AP [1], the inhibition at 10 µM worked out at 18 ± 5% and the inhibition at 100 µM came out at 63 ± 1%. At E6C51S/E6AP, the “% Inhibition @ 10 μM E6C51S/E6AP” value amounted to 12 ± 5% and the “% Inhibition @ 100 μM E6C51S/E6AP” value was determined as 34 ± 2%.

Regarding `COc1ccc(C2c3ccsc3CCN2CC(=O)N2CCN(C(=O)CCl)C(C)C2)cc1` (centres unmarked) [EIN-121, 2-chloro-1-(4-(2-(4-(4-methoxyphenyl)-6,7-dihydrothieno[3,2-c]pyridin-5(4H)-yl)acetyl)-2-methylpiperazin-1-yl)ethan-1-one], at E6 WT/E6AP [1], the inhibition at 10 µM came out at 24 ± 2% and the inhibition at 100 µM stood at 52 ± 1%.

Turning to `Cc1nc(N2CCN(C(=O)CCl)CC2)c2c3c(sc2n1)CCCC3` [EIN-123, 2-chloro-1-(4-(2-methyl-5,6,7,8-tetrahydrobenzo[4,5]thieno[2,3-d]pyrimidin-4-yl)piperazin-1-yl)ethan-1-one], at E6 WT/E6AP [1], the inhibition at 10 µM came out at 58 ± 12% and the inhibition at 100 µM is 114 ± 11%. Further, at E6C51S/E6AP, the “% Inhibition @ 10 μM E6C51S/E6AP” value is listed as 44 ± 10% and the “% Inhibition @ 100 μM E6C51S/E6AP” value was found to be 90 ± 6%.

On to `CCCCc1nc(N2CCN(C(=O)CCl)CC2)c2c3c(sc2n1)CC(C)CC3` (centres unmarked) [EIN-124, 1-(4-(2-butyl-7-methyl-5,6,7,8-tetrahydrobenzo[4,5]thieno[2,3-d]pyrimidin-4-yl)piperazin-1-yl)-2-chloroethan-1-one], for which, on E6 WT/E6AP [1], the inhibition at 10 µM was 71 ± 13% and the inhibition at 100 µM worked out at 113 ± 13%. At E6C51S/E6AP, the “% Inhibition @ 10 μM E6C51S/E6AP” value turned out to be 49 ± 11% and the “% Inhibition @ 100 μM E6C51S/E6AP” value was found to be 90 ± 5%.

`CCCCc1nc(N2CCN(C(=O)CCl)CC2)c2c3c(sc2n1)CCCC3` [EIN-126, 1-(4-(2-butyl-5,6,7,8-tetrahydrobenzo[4,5]thieno[2,3-d]pyrimidin-4-yl)piperazin-1-yl)-2-chloroethan-1-one]: at E6 WT/E6AP [1], the inhibition at 10 µM stood at 18 ± 5% and the inhibition at 100 µM came to 63 ± 1%. Further, on E6C51S/E6AP, the “% Inhibition @ 10 μM E6C51S/E6AP” value was found to be 12 ± 5% and the “% Inhibition @ 100 μM E6C51S/E6AP” value is 34 ± 2%.

`O=C(CCl)N1CCN(c2nc(Cc3ccccc3)nc3sc4c(c23)CCCC4)CC1` [EIN-127, 1-(4-(2-benzyl-5,6,7,8-tetrahydrobenzo[4,5]thieno[2,3-d]pyrimidin-4-yl)piperazin-1-yl)-2-chloroethan-1-one]: at E6 WT/E6AP [1], the inhibition at 10 µM turned out to be 57 ± 14% and the inhibition at 100 µM came to 106 ± 11%. Moreover, on E6C51S/E6AP, the “% Inhibition @ 10 μM E6C51S/E6AP” value turned out to be 41 ± 5% and the “% Inhibition @ 100 μM E6C51S/E6AP” value worked out at 79 ± 4%.

Consider `Cc1sc2nc(CCc3ccccc3)nc(N3CCN(C(=O)CCl)CC3)c2c1C` [EIN-128, 2-chloro-1-(4-(5,6-dimethyl-2-phenethylthieno[2,3-d]pyrimidin-4-yl)piperazin-1-yl)ethan-1-one], for which, at E6 WT/E6AP [1], the inhibition at 10 µM was 47 ± 14% and the inhibition at 100 µM was determined as 106 ± 11%. For the same molecule, on E6C51S/E6AP, the “% Inhibition @ 10 μM E6C51S/E6AP” value is 19 ± 8% and the “% Inhibition @ 100 μM E6C51S/E6AP” value was determined as 60 ± 3%.

For `Cc1sc2nc(C3CC3)nc(N3CCN(C(=O)CCl)CC3)c2c1C` [EIN-129, 2-chloro-1-(4-(2-cyclopropyl-5,6-dimethylthieno[2,3-d]pyrimidin-4-yl)piperazin-1-yl)ethan-1-one], at E6 WT/E6AP [1], the inhibition at 10 µM came to 81 ± 16% and the inhibition at 100 µM turned out to be 119 ± 13%. Moreover, on E6C51S/E6AP, the “% Inhibition @ 10 μM E6C51S/E6AP” value came out at 57 ± 12% and the “% Inhibition @ 100 μM E6C51S/E6AP” value is 103 ± 5%.

In the case of `CCCc1nc(N2CCN(C(=O)CCl)CC2)c2c3c(sc2n1)CC(C)CC3` (centres unmarked) [EIN-130, 2-chloro-1-(4-(7-methyl-2-propyl-5,6,7,8-tetrahydrobenzo[4,5]thieno[2,3-d]pyrimidin-4-yl)piperazin-1-yl)ethan-1-one], at E6 WT/E6AP [1], the inhibition at 10 µM was 46 ± 9% and the inhibition at 100 µM worked out at 100 ± 9%. At E6C51S/E6AP, the “% Inhibition @ 10 μM E6C51S/E6AP” value came out at 52 ± 12% and the “% Inhibition @ 100 μM E6C51S/E6AP” value is given as 85 ± 6%.

For the molecule `CCc1nc(N2CCN(C(=O)CCl)CC2)c2c3c(sc2n1)CCCC3` [EIN-131, 2-chloro-1-(4-(2-ethyl-5,6,7,8-tetrahydrobenzo[4,5]thieno[2,3-d]pyrimidin-4-yl)piperazin-1-yl)ethan-1-one], on E6 WT/E6AP [1], the inhibition at 10 µM came to 24 ± 3% and the inhibition at 100 µM stood at 65 ± 3%.

Consider `C=CC(=O)N1CCN(c2nc(N(C)Cc3ccccc3F)nc3sc4c(c23)CCCC4)CC1` [EIN-140, 1-(4-(2-((2-fluorobenzyl)(methyl)amino)-5,6,7,8-tetrahydrobenzo[4,5]thieno[2,3-d]pyrimidin-4-yl)piperazin-1-yl)prop-2-en-1-one], for which, at E6 WT/E6AP [1], the inhibition at 10 µM came to 6 ± 6% and the inhibition at 100 µM is 17 ± 4%. At E6C51S/E6AP, the “% Inhibition @ 10 μM E6C51S/E6AP” value is reported as 0% and the “% Inhibition @ 100 μM E6C51S/E6AP” value came out at 0%.

Take `C=CC(=O)N1CCN(c2nc(N(C)Cc3cccc(F)c3)nc3sc4c(c23)CCCC4)CC1` [EIN-141, 1-(4-(2-((3-fluorobenzyl)(methyl)amino)-5,6,7,8-tetrahydrobenzo[4,5]thieno[2,3-d]pyrimidin-4-yl)piperazin-1-yl)prop-2-en-1-one]: on E6 WT/E6AP [1], the inhibition at 10 µM was 0% and the inhibition at 100 µM came out at 18 ± 5%. Also, on E6C51S/E6AP, the “% Inhibition @ 10 μM E6C51S/E6AP” value came to 0% and the “% Inhibition @ 100 μM E6C51S/E6AP” value was 0%.

Turning to `C=CC(=O)N1CCN(c2nc(N(C)Cc3ccc(F)cc3)nc3sc4c(c23)CCCC4)CC1` [EIN-142, 1-(4-(2-((4-fluorobenzyl)(methyl)amino)-5,6,7,8-tetrahydrobenzo[4,5]thieno[2,3-d]pyrimidin-4-yl)piperazin-1-yl)prop-2-en-1-one], on E6 WT/E6AP [1], the inhibition at 10 µM is 17 ± 4% and the inhibition at 100 µM amounted to 28 ± 3%. Moreover, at E6C51S/E6AP, the “% Inhibition @ 10 μM E6C51S/E6AP” value worked out at 0% and the “% Inhibition @ 100 μM E6C51S/E6AP” value is on record as 0%.

Consider `C=CC(=O)N1CCN(c2nc(CCc3cccc(OC)c3)nc3sc4c(c23)CCCC4)CC1` [EIN-151, 1-(4-(2-(3-methoxyphenethyl)-5,6,7,8-tetrahydrobenzo[4,5]thieno[2,3-d]pyrimidin-4-yl)piperazin-1-yl)prop-2-en-1-one], for which, at E6 WT/E6AP [2] (at 24 h), the “FP maximal inhibition (max %) E6 WT/E6AP” value was “(max 71%)”.

In the case of `C=CC(=O)N1CCN(c2nc(CCc3ccc(F)cc3)nc3ccccc23)CC1` [EIN-153, 1-(4-(2-(4-fluorophenethyl)quinazolin-4-yl)piperazin-1-yl)prop-2-en-1-one], at E6 WT/E6AP [2], the Emax worked out at 100% and the IC50 (in general, the point on the concentration scale where inhibition reaches its midpoint) was determined as 27.7 ± 1.3 µM.

In the case of `C=CC(=O)N1CCN(c2nc(CCc3cccc(F)c3)nc3ccccc23)CC1` [EIN-158, 1-(4-(2-(3-fluorophenethyl)quinazolin-4-yl)piperazin-1-yl)prop-2-en-1-one], at E6 WT/E6AP [2], the Emax was determined as 100% and the IC50 stood at 52.8 ± 2.8 µM.

As for `C=CC(=O)N1CCN(c2nc(-c3cccc(OC)c3)nc3ccccc23)CC1` [EIN-159, 1-(4-(2-(3-methoxyphenyl)quinazolin-4-yl)piperazin-1-yl)prop-2-en-1-one], on E6 WT/E6AP [2], the Emax turned out to be 91% and the IC50 was found to be 14.5 ± 1.3 µM.

Consider `C=CC(=O)N1CCN(c2nc(-c3ccccc3OC)nc3ccccc23)CC1` [EIN-160, 1-(4-(2-(2-methoxyphenyl)quinazolin-4-yl)piperazin-1-yl)prop-2-en-1-one], for which, on E6 WT/E6AP [2], the Emax worked out at 100% and the midpoint of inhibition, the IC50, lay at 128 ± 2.3 µM.

Consider `C=CC(=O)N1CCN(c2nc(-c3ccc(OC)cc3)nc3ccccc23)CC1` [EIN-161, 1-(4-(2-(4-methoxyphenyl)quinazolin-4-yl)piperazin-1-yl)prop-2-en-1-one], for which, on E6 WT/E6AP [2], the Emax stood at 91% and the IC50 turned out to be 13.3 ± 1.9 µM.

With `C=CC(=O)N1CCN(c2nc(-c3ccc(OC(F)(F)F)cc3)nc3ccccc23)CC1` [EIN-162, 1-(4-(2-(4-(trifluoroniethoxy)phenyl)quinazolin-4-yl)piperazin-1-yl)prop-2-en-1-one], at E6 WT/E6AP [2], the Emax was found to be 100% and the IC50 is 105 ± 13.7 µM.

As to `C=CC(=O)N1CCN(c2nc(-c3ccc(OC4CC4)cc3)nc3ccccc23)CC1` [EIN-163, 1-(4-(2-(4-cyclopropoxyphenyl)quinazolin-4-yl)piperazin-1-yl)prop-2-en-1-one], on E6 WT/E6AP [2], the Emax was determined as 100% and the IC50 is 41.6 ± 2.8 µM.

Take `C=CC(=O)N1CCN(c2nc(-c3ccc(OC)cc3F)nc3ccccc23)CC1` [EIN-164, 1-(4-(2-(2-fluoro-4-methoxyphenyl)quinazolin-4-yl)piperazin-1-yl)prop-2-en-1-one]: on E6 WT/E6AP [2], the Emax stood at 100% and 22.9 ± 1.3 µM corresponded to half-maximal inhibition (IC50).

Take `C=CC(=O)N1CCN(c2nc(-c3ccc(OC)cc3)nc3cccnc23)CC1` [EIN-165, 1-(4-(2-(4-methoxyphenyl)pyrido[3,2-d]pyrimidin-4-yl)piperazin-1-yl)prop-2-en-1-one]: at E6 WT/E6AP [2], the Emax was found to be 100% and the IC50 came to 38.2 ± 2.1 µM.
